Results: patent US8288385B2, “6-(3-aza-bicyclo[3.1.0]hex-3-yl)-2-phenyl-pyrimidines” (Actelion Pharmaceuticals Ltd., priority 2009, dated 2012)

Target: T1, human P2Y12 receptor (Homo sapiens, UniProt Q9H244)
T1 construct: expressed in transfected cells; host or cells: Chinese Hamster Ovary (CHO) cells
Assay: P2Y12 receptor binding assay
Conditions: CHO cells with recombinant expression of the human P2Y12 receptor; tritium-labeled 2-methyl-S-ADP; RT, 2 hours
Procedure: P2Y12 Receptor Binding Assay
Chinese Hamster Ovary (CHO) cells with recombinant expression of the human P2Y12 receptor were cultured in 24 well cell-culture plates. Cells were washed three times with binding buffer (50 mM Tris pH 7.4, 100 mM NaCl, 1 mM EDTA, 0.5% BSA). The cells were then incubated with 0.5 ml per well binding buffer containing tritium-labeled 2-methyl-thio-adenosine 5′-diphosphate (2-methyl-S-ADP) (between 100,000 and 300,000 dpm per well) and various concentrations of test compounds. After incubation at RT for 2 hours, cells were washed three times with binding buffer. Then, cells were solubilized by addition of 0.5 ml solubilization buffer (SDS, NaOH, EDTA). The content of each well was then transferred into beta-counter vials and 2.0 ml of Ultima Gold Scintillation liquid was added.

T1 sequence (Q9H244 whole entry): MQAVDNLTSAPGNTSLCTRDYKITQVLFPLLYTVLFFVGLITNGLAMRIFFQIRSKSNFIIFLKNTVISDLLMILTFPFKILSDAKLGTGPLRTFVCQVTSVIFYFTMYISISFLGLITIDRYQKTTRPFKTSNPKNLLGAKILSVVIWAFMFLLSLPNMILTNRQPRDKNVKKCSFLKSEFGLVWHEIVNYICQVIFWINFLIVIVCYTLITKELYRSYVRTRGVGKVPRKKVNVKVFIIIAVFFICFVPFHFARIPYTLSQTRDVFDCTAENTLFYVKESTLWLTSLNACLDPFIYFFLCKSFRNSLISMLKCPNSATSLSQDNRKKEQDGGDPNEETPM

Row | Structure (SMILES) | IC50
1 | CCCCOC(=O)N1CCN(C(=O)[C@@H](NC(=O)c2cc(N3C[C@@H]4[C@H](C3)[C@@H]4C(=O)O)nc(-c3ccc(F)cc3)n2)C(C)C)CC1 [Example 28, (1α,5α,6β)-3-[6-[(S)-1-(4-Butoxycarbonyl-piperazine-1-carbonyl)-2-methyl-propylcarbamoyl]-2-(4-fluoro-phenyl)-pyrimidin-4-yl]-3-aza-bicyclo[3.1.0]hexane-6-carboxylic acid] | 7 nM
2 | CCCCOC(=O)N1CCN(C(=O)[C@H](CC#N)NC(=O)c2cc(N3C[C@@H]4[C@H](C3)[C@@H]4C(=O)O)nc(-c3ccccc3)n2)CC1 [Example 48, (1α,5α,6β)-3-{6-[(S)-1-(4-Butoxycarbonyl-piperazine-1-carbonyl)-2-cyano-ethylcarbamoyl]-2-phenyl-pyrimidin-4-yl}-3-aza-bicyclo[3.1.0]hexane-6-carboxylic acid] | 74 nM
3 | CCCCOC(=O)N1CCN(C(=O)[C@@H](NC(=O)c2cc(N3C[C@@H]4[C@H](C3)[C@@H]4C(=O)O)nc(-c3cccc(C(F)(F)F)c3)n2)C(C)C)CC1 [Example 30, (1α,5α,6β)-3-[6-[(S)-1-(4-Butoxycarbonyl-piperazine-1-carbonyl)-2-methyl-propylcarbamoyl]-2-(3-trifluoromethyl-phenyl)-pyrimidin-4-yl]-3-aza-bicyclo[3.1.0]hexane-6-carboxylic acid] | 250 nM
4 | CCCCOC(=O)N1CCN(C(=O)[C@@H](NC(=O)c2cc(N3C[C@@H]4[C@H](C3)[C@H]4C(N)=O)nc(-c3ccccc3)n2)C(C)C)CC1 [Example 17, 4-((S)-2-{[6-((1α,5α,6α)-6-Carbamoyl-3-aza-bicyclo[3.1.0]hex-3-yl)-2-phenyl-pyrimidine-4-carbonyl]-amino}-3-methyl-butyryl)-piperazine-1-carboxylic acid butyl ester] | 13 nM
5 | CCCCOC(=O)N1CCN(C(=O)[C@@H](NC(=O)c2cc(N3C[C@@H]4[C@H](CCC(=O)O)[C@@H]4C3)nc(-c3ccccc3)n2)C(C)C)CC1 [Example 26, 4-[(S)-2-({6-[(1α,5α,6β)-6-(2-Carboxy-ethyl)-3-aza-bicyclo[3.1.0]hex-3-yl]-2-phenyl-pyrimidine-4-carbonyl}-amino)-3-methyl-butyryl]-piperazine-1-carboxylic acid butyl ester] | 59 nM
6 | CCCCOC(=O)N1CCN(C(=O)[C@H](CCC(=O)O)NC(=O)c2cc(N3C[C@@H]4[C@@H](COC)[C@@H]4C3)nc(-c3ccccc3)n2)CC1 [Example 10, 4-((S)-4-Carboxy-2-{[6-((1α,5α,6α)-6-methoxymethyl-3-aza-bicyclo[3.1.0]hex-3-yl)-2-phenyl-pyrimidine-4-carbonyl]-amino}-butyryl)-piperazine-1-carboxylic acid butyl ester] | 6.6 nM
7 | CCCCOC(=O)N1CCN(C(=O)[C@H](C)NC(=O)c2cc(N3C[C@@H]4[C@H](C3)[C@@H]4C(=O)O)nc(-c3ccccc3)n2)CC1 [Example 35, (1α,5α,6β)-3-{6-[(S)-2-(4-Butoxycarbonyl-piperazin-1-yl)-1-methyl-2-oxo-ethylcarbamoyl]-2-phenyl-pyrimidin-4-yl}-3-aza-bicyclo[3.1.0]hexane-6-carboxylic acid] | 51 nM
8 | CCCCOC(=O)N1CCN(C(=O)[C@@H](NC(=O)c2cc(N3C[C@@H]4[C@H](C3)[C@@H]4C(=O)O)nc(-c3ccccc3)n2)C(C)(C)C)CC1 [Example 43, (1α,5α,6β)-3-{6-[(S)-1-(4-Butoxycarbonyl-piperazine-1-carbonyl)-2,2-dimethyl-propylcarbamoyl]-2-phenyl-pyrimidin-4-yl}-3-aza-bicyclo[3.1.0]hexane-6-carboxylic acid] | 330 nM
9 | CCCCOC(=O)N1CCN(C(=O)[C@H](CP(=O)(O)O)NC(=O)c2cc(N3C[C@@H]4[C@H](C3)[C@H]4C(=O)OCC)nc(-c3ccccc3)n2)CC1 [Example 51, (1α,5α,6α)-3-{6-[(R)-2-(4-Butoxycarbonyl-piperazin-1-yl)-2-oxo-1-phosphonomethyl-ethylcarbamoyl]-2-phenyl-pyrimidin-4-yl}-3-aza-bicyclo[3.1.0]hexane-6-carboxylic acid ethyl ester] | 2.5 nM
10 | CCCCOC(=O)N1CCN(C(=O)[C@@H](NC(=O)c2cc(N3C[C@@H]4[C@H](C3)[C@@H]4c3nnn[nH]3)nc(-c3ccccc3)n2)C(C)C)CC1 [Example 22] | 38 nM
11 | CCCCOC(=O)N1CCN(C(=O)[C@H](CP(=O)(N[C@@H](C)C(=O)OCC)N[C@@H](C)C(=O)OCC)NC(=O)c2cc(N3C[C@@H]4[C@H](C3)[C@H]4C(=O)OCC)nc(-c3ccccc3)n2)CC1 [Example 53, N,N′-Bis-((S)-1-Ethoxycarbonylethyl)-(R)-2-[(4-[(1α,5α,6α)-6-ethoxycarbonyl-3-aza-bicyclo[3.1.0]hex-3-yl]-2-phenyl-pyrimidin-6-carbonyl)-amino]-3-oxo-3-(4-butoxy-carbonyl-piperazin-1-yl)-propyl-phosphonic acid diamide] | 110 nM
12 | CCCCOC(=O)N1CCN(C(=O)[C@@H](NC(=O)c2cc(N3C[C@@H]4[C@H](C3)[C@@H]4C(=O)O)nc(-c3ccc(C)cc3)n2)C(C)C)CC1 [Example 29, (1α,5α,6β)-3-{6-[(S)-1-(4-Butoxycarbonyl-piperazine-1-carbonyl)-2-methyl-propylcarbamoyl]-2-p-tolyl-pyrimidin-4-yl}-3-aza-bicyclo[3.1.0]hexane-6-carboxylic acid] | 18 nM
13 | CCCCOC(=O)N1CCN(C(=O)[C@@H](NC(=O)c2cc(N3C[C@@H]4[C@@H](CCC(=O)O)[C@@H]4C3)nc(-c3ccccc3)n2)C(C)C)CC1 [Example 27, 4-[(S)-2-({6-[(1α,5α,6α)-6-(2-Carboxy-ethyl)-3-aza-bicyclo[3.1.0]hex-3-yl]-2-phenyl-pyrimidine-4-carbonyl}-amino)-3-methyl-butyryl]-piperazine-1-carboxylic acid butyl ester] | 151 nM
14 | CCCCCCOC(=O)N1CCN(C(=O)[C@@H](NC(=O)c2cc(N3C[C@@H]4[C@H](C3)[C@@H]4C(=O)O)nc(-c3ccccc3)n2)C(C)C)CC1 [Example 16, (1α,5α,6β)-3-{6-[(S)-1-(4-Hexyloxycarbonyl-piperazine-1-carbonyl)-2-methyl-propylcarbamoyl]-2-phenyl-pyrimidin-4-yl}-3-aza-bicyclo[3.1.0]hexane-6-carboxylic acid] | 34 nM
15 | CCCCOC(=O)N1CCN(C(=O)[C@@H](NC(=O)c2cc(N3C[C@@H]4[C@@H](C#N)[C@@H]4C3)nc(-c3ccccc3)n2)C(C)C)CC1 [Example 18, 4-((S)-2-{[6-((1α,5α,6α)-6-Cyano-3-aza-bicyclo[3.1.0]hex-3-yl)-2-phenyl-pyrimidine-4-carbonyl]-amino}-3-methyl-butyryl)-piperazine-1-carboxylic acid butyl ester] | 75 nM
16 | CCCCOC(=O)N1CCN(C(=O)[C@@H](NC(=O)c2cc(N3C[C@@H]4[C@H](C3)[C@H]4C(=O)O)nc(-c3ccccc3)n2)C(C)C)CC1 [Example 12, (1α,5α,6α)-3-{6-[(S)-1-(4-Butoxycarbonyl-piperazine-1-carbonyl)-2-methyl-propylcarbamoyl]-2-phenyl-pyrimidin-4-yl}-3-aza-bicyclo[3.1.0]hexane-6-carboxylic acid] | 70 nM
17 | CCCCOC(=O)N1CCN(C(=O)[C@H](CCC(=O)O)NC(=O)c2cc(N3C[C@@H]4[C@H](C3)[C@@H]4C(=O)OCC)nc(-c3ccccc3)n2)CC1 [Example 4, (1α,5α,6β)-3-{6-[(S)-1-(4-Butoxycarbonyl-piperazine-1-carbonyl)-3-carboxy-propylcarbamoyl]-2-phenyl-pyrimidin-4-yl}-3-aza-bicyclo[3.1.0]hexane-6-carboxylic acid ethyl ester] | 15 nM
18 | CCCCOC(=O)N1CCN(C(=O)[C@H](CCC(=O)O)NC(=O)c2cc(N3C[C@@H]4[C@H](C3)[C@H]4C(=O)OCC)nc(-c3ccccc3)n2)CC1 [Example 3, (1α,5α,6α)-3-{6-[(S)-1-(4-Butoxycarbonyl-piperazine-1-carbonyl)-3-carboxy-propylcarbamoyl]-2-phenyl-pyrimidin-4-yl}-3-aza-bicyclo[3.1.0]hexane-6-carboxylic acid ethyl ester] | 8.7 nM
19 | CCCCOC(=O)N1CCN(C(=O)[C@@H](NC(=O)c2cc(N3C[C@@H]4[C@H](C3)[C@@H]4C(=O)O)nc(-c3ccccc3F)n2)C(C)C)CC1 [Example 47, (1α,5α,6β)-3-[6-[(S)-1-(4-Butoxycarbonyl-piperazine-1-carbonyl)-2-methyl-propylcarbamoyl]-2-(2-fluoro-phenyl)-pyrimidin-4-yl]-3-aza-bicyclo[3.1.0]hexane-6-carboxylic acid] | 12 nM
20 | CCCCOC(=O)N1CCN(C(=O)[C@H](CCC(=O)O)NC(=O)c2cc(N3C[C@@H]4[C@H](C3)[C@H]4NC(=O)OC(C)(C)C)nc(-c3ccccc3)n2)CC1 [Example 5, 4-((S)-2-{[6-((1α,5α,6α)-6-tert-Butoxycarbonylamino-3-aza-bicyclo[3.1.0]hex-3-yl)-2-phenyl-pyrimidine-4-carbonyl]amino}-4-carboxy-butyryl)-piperazine-1-carboxylic acid butyl ester] | 6.2 nM
21 | CCCCOC(=O)N1CCN(C(=O)[C@@H](NC(=O)c2cc(N3C[C@@H]4[C@H](C3)[C@H]4C(=O)O)nc(-c3ccccc3)n2)C(C)(C)C)CC1 [Example 44, (1α,5α,6α)-3-{6-[(S)-1-(4-Butoxycarbonyl-piperazine-1-carbonyl)-2,2-dimethyl-propylcarbamoyl]-2-phenyl-pyrimidin-4-yl}-3-aza-bicyclo[3.1.0]hexane-6-carboxylic acid] | 903 nM
22 | CCCCOC(=O)N1CCN(C(=O)[C@@H](NC(=O)c2cc(N3C[C@@H]4[C@H](C3)[C@H]4c3nnn[nH]3)nc(-c3ccccc3)n2)C(C)C)CC1 [Example 19] | 12 nM
